Source: patent US5618812A, “Benzodiazepine derivatives” (Merck Sharp & Dohme, Ltd., priority 1992, dated 1997)

Legend:
CCK-A = target: T1, CCK-A (Rattus norvegicus, UniProt P30551); experiment: biochemical; format: binding; conditions: rat pancreas (CCK-A), 125I-CCK; read-out: CCK RECEPTOR BINDING RESULTS IC50 125I-CCK Pancreas
T1 sequence (P30551 1-444): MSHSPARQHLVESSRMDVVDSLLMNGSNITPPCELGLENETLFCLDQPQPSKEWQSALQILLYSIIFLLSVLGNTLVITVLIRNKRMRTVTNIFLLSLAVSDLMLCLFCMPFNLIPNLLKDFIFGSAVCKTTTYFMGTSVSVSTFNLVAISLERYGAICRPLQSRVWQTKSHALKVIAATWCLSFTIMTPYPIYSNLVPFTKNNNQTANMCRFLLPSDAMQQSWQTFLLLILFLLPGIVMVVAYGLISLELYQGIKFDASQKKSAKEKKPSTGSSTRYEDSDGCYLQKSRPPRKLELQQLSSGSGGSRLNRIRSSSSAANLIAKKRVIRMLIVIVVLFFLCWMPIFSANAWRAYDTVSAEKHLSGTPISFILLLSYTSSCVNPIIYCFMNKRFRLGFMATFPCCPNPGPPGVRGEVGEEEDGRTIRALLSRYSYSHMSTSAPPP
Method: (§1) The CCK-A and CCK-B antagonising activity of the compounds described herein was evaluated using the assays described in published European patent application no. 0514133. The method essentially involves determining the concentration of the test compound required to displace 50% of the specific ^125 I-CCK from rat pancreas (CCK-A) or guinea pig brain (CCK-B).

CCK-B = target: T2, CCK-B (Cavia porcellus, UniProt H0VZC5); experiment: displacement of specific 125I-CCK from guinea pig brain (CCK-B receptor binding); conditions: read-out: CCK RECEPTOR BINDING RESULTS IC50 125I-CCK Brain
T2 construct: guinea pig brain (CCK-B); from tissue; host or cells: guinea pig brain
T2 sequence (H0VZC5 1-426): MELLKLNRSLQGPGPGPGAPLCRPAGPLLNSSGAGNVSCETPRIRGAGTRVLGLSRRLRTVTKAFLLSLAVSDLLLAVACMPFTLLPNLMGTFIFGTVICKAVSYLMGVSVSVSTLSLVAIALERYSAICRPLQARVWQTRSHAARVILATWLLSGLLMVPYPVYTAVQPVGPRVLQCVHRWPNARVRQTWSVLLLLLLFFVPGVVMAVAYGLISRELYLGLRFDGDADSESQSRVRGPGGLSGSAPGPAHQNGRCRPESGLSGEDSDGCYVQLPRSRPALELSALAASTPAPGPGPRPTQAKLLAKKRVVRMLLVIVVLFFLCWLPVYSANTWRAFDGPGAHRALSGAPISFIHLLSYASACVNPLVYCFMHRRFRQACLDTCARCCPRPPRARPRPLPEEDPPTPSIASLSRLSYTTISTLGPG
Method: as §1, with “(CCK-B). The data in Table 1 were obtained for compounds of the Examples.” for “(CCK-B).”

| IC50 (CCK-A) | IC50 (CCK-B) | Molecule |
| --- | --- | --- |
| 235 nM | 10.9 nM | Cc1cccc(NC(=O)NC2N=C(N3[C@H](C)CCC[C@@H]3C)c3ccccc3N(C)C2=O)c1 (stereo partly drawn) [Example 6, N-[3(R,S)-2,3-Dihydro-5-(cis-2,6-dimethylpiperidin-1-yl)-1-methyl-2-oxo-1H-1,4-benzodiazepin-3-yl]N'-[3-methylphenyl]urea] |
| 496 nM | 1.53 nM | C[C@@H]1CCC[C@H](C)N1C1=NC(NC(=O)Nc2ccc3c(c2)CCC3)C(=O)N(C)c2ccccc21 (stereo partly drawn) [Example 13, N-[3(R,S)-2,3-Dihydro-5-(cis-2.6-dimethylpiperidin-1-yl)-1-methyl-2-oxo-1H-1,4-benzodiazepin-3-yl]N'-[indan-5-yl]urea] |
| 2650 nM | 19.1 nM | Cc1cccc(NC(=O)NC2N=C(N3C[C@@H](C)O[C@@H](C)C3)c3ccccc3N(C)C2=O)c1 (stereo partly drawn) [Example 16, N-[3(R,S)-2,3-Dihydro-5-(cis-2,6-dimethylmorpholin-4-yl)-1-methyl-2-oxo-1H-1,4-benzodiazepin-3-yl]N'-[3-methylphenyl]urea] |

The next lines start with the molecule.

| Molecule | IC50 (CCK-A) | IC50 (CCK-B) |
| --- | --- | --- |
| CCCN1C(=O)C(NC(=O)Nc2cccc(C)c2)N=C(N2C[C@@H]3C[C@H]2CN3C)c2ccccc21 (stereo partly drawn) [Example 32, N-[3(R,S)-2,3-Dihydro-5-((1S,4S)-5-methyl-2,5-diazabicyclo-[2,2,1]heptan-2-yl)-2-oxo-1-propyl-1H-1,4-benzodiazepin-3-yl]-N'-[3-methylphenyl]urea] | > 3000 nM | 22 nM |
| CC(C)CN1C(=O)C(NC(=O)[C@@H]2Cc3ccccc3N2)N=C(N2CCCCCC2)c2ccccc21 (stereo partly drawn) [Example 93, 3(R,S)-N-(2,3-Dihydro-5-(homopiperidin-1-yl)-1-(2-methylpropyl)-2-oxo-1H-1,4-benzodiazepin-3-yl)-(2S)-indoline-2-carboxamide] | 101 nM | 348 nM |
| (+)-[5-(N-Cycloheptyl-N-methylamino)-2,3-dihydro-1ethyl-2-oxo-1H-1,4-benzodiazepin-3-yl ]-N'-[5-indanyl ]urea Hydrochloride [Example 71] | 145 nM | 86 nM |
